Laboratory results from ChEMBL document CHEMBL1133626, “GRid-INdependent descriptors (GRIND): a novel class of alignment-independent three-dimensional molecular descriptors” (J Med Chem, 2000).

Experiments:
[1] = biological target: T1, Corticosteroid-binding globulin (Homo sapiens) (UniProt P08185); test: (§1) Binding affinity to the corticosteroid-binding globulin (CBG) receptor.
T1 sequence (whole entry): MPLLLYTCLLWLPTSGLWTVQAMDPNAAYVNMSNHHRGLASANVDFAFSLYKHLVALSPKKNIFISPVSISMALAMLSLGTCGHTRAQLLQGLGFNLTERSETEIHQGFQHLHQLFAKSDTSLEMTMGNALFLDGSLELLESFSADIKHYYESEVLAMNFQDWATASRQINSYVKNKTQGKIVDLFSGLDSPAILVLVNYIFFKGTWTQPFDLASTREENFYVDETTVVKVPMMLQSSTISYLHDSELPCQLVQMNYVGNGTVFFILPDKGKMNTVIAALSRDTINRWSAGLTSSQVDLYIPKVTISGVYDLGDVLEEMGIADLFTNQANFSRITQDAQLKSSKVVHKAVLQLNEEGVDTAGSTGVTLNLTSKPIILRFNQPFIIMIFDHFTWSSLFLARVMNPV

[2] = biological target: 5-hydroxytryptamine receptor 2A (Rattus norvegicus, UniProt P14842); test: Kinetic inhibition constant evaluated by measuring serotonergic activity
5-hydroxytryptamine receptor 2A, sequence (P14842 whole entry): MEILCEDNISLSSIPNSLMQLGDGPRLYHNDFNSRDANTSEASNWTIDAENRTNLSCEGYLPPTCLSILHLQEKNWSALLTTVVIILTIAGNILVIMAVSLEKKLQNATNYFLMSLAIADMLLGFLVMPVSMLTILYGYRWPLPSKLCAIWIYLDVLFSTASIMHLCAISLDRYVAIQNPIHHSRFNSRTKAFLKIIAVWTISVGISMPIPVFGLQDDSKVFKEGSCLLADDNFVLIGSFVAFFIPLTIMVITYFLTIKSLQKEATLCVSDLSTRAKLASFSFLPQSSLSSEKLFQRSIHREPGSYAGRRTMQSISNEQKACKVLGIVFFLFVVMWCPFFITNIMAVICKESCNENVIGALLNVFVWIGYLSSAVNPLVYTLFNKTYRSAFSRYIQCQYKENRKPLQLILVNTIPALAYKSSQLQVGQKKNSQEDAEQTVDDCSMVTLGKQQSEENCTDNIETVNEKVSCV

[3] = Binding affinity of the Corticosteroid-Binding Globulin Receptor with androstenedione
[4] = Kinetic inhibition constant was evaluated by measuring the inhibition of the glycogen phosphorylase (GP)
[5] = Binding affinity of the Corticosteroid-Binding Globulin Receptor with corticosterone
[6] = Binding affinity of the Corticosteroid-Binding Globulin Receptor with dehydroepiandrosterone
[7] = biological target: T1, Corticosteroid-binding globulin (Homo sapiens)
[8] = Binding affinity of the Corticosteroid-Binding Globulin Receptor with cortisol
[9] = as §1
[10] = Binding affinity of the Corticosteroid-Binding Globulin Receptor with androsterone
[11] = Binding affinity of the Corticosteroid-Binding Globulin Receptor with androstenediol
[12] = Binding affinity of the Corticosteroid-Binding Globulin Receptor with androstanediol
[13] = Binding affinity of the Corticosteroid-Binding Globulin Receptor with deoxy-corticosterone

CC(=O)[C@@]1(O)CC[C@H]2[C@@H]3CCC4=CC(=O)CC[C@]4(C)[C@H]3CC[C@@]21C
Log K [1]: 7.74

CC(=O)[C@H]1CC[C@H]2[C@@H]3CCC4=CC(=O)CC[C@]4(C)[C@H]3C(=O)C[C@]12C
Log K [1]: 6.78

C[C@]12CCC(=O)C=C1CC[C@@H]1[C@@H]2C(=O)C[C@@]2(C)[C@H]1CC[C@]2(O)C(=O)CO
Log K [1]: 6.89

O=C(c1ccc(F)cc1)C1CCN(CCC2CC3=CC=CC3C2=O)CC1 (centres undefined)
Ki [2]: 7.08 nM

O=C(CCCN1CCN(CCC2CC3=CC=CC3C2=O)CC1)c1ccc(F)cc1 (centres undefined)
Ki [2]: 42.7 nM

COC(=O)C1OC(CO)C(O)C(O)C1O (centres undefined)
Log K [3]: 5.76
pKi [4]: 2.55

NC(=O)N[C@H]1O[C@H](CO)[C@@H](O)[C@H](O)[C@H]1O
Log K [5]: 7.88
pKi [4]: 3.85

NN1C(=O)N[C@@]2(O[C@@H](CO)[C@@H](O)[C@H](O)[C@@H]2O)C1=O
Log K [6]: 5
pKi [4]: 3.84

CC(=O)[C@H]1CC[C@H]2[C@@H]3CCC4=CC(=O)CC[C@]4(C)[C@H]3CC[C@]12C
Log Ki [7]: 7.38 mM

CC(=O)[C@@]1(O)[C@H](O)C[C@H]2[C@@H]3CC=C4CC(=O)CC[C@]4(C)[C@H]3CC[C@@]21C
Log K [1]: 6.14

C[C@]12CC[C@H]3[C@@H](CCC4=CC(=O)CC[C@@]43C)[C@@H]1CC[C@@H]2O
Log K [1]: 6.72

C[C@]12CC[C@H]3[C@@H](CCC4=CC(=O)CC[C@@]43C)[C@@H]1CC[C@@H]2C(=O)CO
Log K [1]: 7.65

COC(=O)N[C@]1(C(N)=O)O[C@H](CO)[C@@H](O)[C@H](O)[C@H]1O
Log K [8]: 7.88
pKi [4]: 4.8

C[C@]12CCC(=O)C=C1CC[C@@H]1[C@@H]2CC[C@@]2(C)[C@H]1CC[C@]2(O)C(=O)CO
Log K [9]: 7.88

N#CC[C@@H]1O[C@H](CO)[C@@H](O)[C@H](O)[C@H]1O
Log K [10]: 5.61
pKi [4]: 2.05

CC(=O)[C@H]1CC[C@H]2[C@@H]3CCC4=CC(=O)CC[C@@H]4[C@H]3CC[C@]12C
Log K [1]: 7.12

C[C@]12CC[C@H](O)CC1=CC[C@@H]1[C@@H]2CC[C@]2(C)C(=O)CC[C@@H]12
Log K [1]: 5

C[C@]12CC[C@@H]3c4ccc(O)cc4CC[C@H]3[C@@H]1CC[C@@H]2O
Log K [1]: 5

NC(=O)C1OC(CO)C(O)C(O)C1O (stereo in doubt; 3)
Log K [11]: 5
pKi [4]: 3.36

CC(=O)C1[C@H](C)CC2C3CC=C4CC(=O)CCC4(C)C3CCC21C (some centres undefined)
Log K [1]: 6.25

NC(=O)C1OC(CO)C(O)C(O)C1O (stereo in doubt; 2)
Log K [12]: 5
pKi [4]: 3.43

C[C@]12CCC(=O)C=C1CC[C@@H]1[C@@H]2[C@@H](O)C[C@]2(C=O)[C@@H](C(=O)CO)CC[C@@H]12
Log K [9]: 6.28

C[C@]12C[C@@H](O)[C@H]3[C@@H](CCC4=CC(=O)CC[C@@]43C)[C@@H]1CC[C@@H]2C(=O)CO
Log K [9]: 6.78

CC(=O)OCC(=O)[C@@]1(O)CC[C@H]2[C@@H]3CCC4=CC(=O)CC[C@]4(C)[C@H]3[C@@H](O)C[C@@]21C
Log K [1]: 7.55

O=C1CNC(=O)[C@@]2(N1)O[C@@H](CO)[C@@H](O)[C@H](O)[C@@H]2O
pKi [4]: 4.22
Log K [13]: 7.65

C[C@]12CC[C@H]3[C@@H](CCC4=CC(=O)CC[C@@H]43)[C@@H]1CC[C@@H]2O
Log K [1]: 7.2

CC(=O)[C@H]1CC[C@H]2[C@@H]3CC=C4C[C@@H](O)CC[C@]4(C)[C@H]3CC[C@]12C
Log K [1]: 5.25

C[C@]12C=CC(=O)C=C1CC[C@@H]1[C@@H]2[C@@H](O)C[C@@]2(C)[C@H]1CC[C@]2(O)C(=O)CO
Log K [9]: 6.72

C[C@]12C[C@H](O)[C@H]3[C@@H](CCC4=CC(=O)CC[C@@]43C)[C@@H]1CC[C@@H]2C(=O)CO
Log K [1]: 7.88

C[C@]12CCC(=O)C=C1CC[C@@H]1[C@@H]2CC[C@]2(C)C(=O)CC[C@@H]12
Log K [1]: 5.76

C[C@]12CC[C@@H]3c4ccc(O)cc4CC[C@H]3[C@@H]1C[C@@H](O)[C@@H]2O
Log K [1]: 5

C[C@]12CC[C@H](O)C[C@@H]1CC[C@@H]1[C@@H]2CC[C@]2(C)[C@@H](O)CC[C@@H]12
Log K [1]: 5

O=C1C(CCN2CCC(c3noc4cc(F)ccc34)CC2)CC2=CC=CC12 (centres undefined)
Ki [2]: 1.74 nM

C[C@@H]1C[C@@]2(C)C(=CC1=O)CC[C@H]1[C@@H]3CC[C@](O)(C(=O)CO)[C@@]3(C)C[C@H](O)[C@@]12F
Log K [1]: 5.8

CC(=O)[C@@]1(O)CC[C@H]2[C@@H]3CC[C@@H]4C[C@H](O)CC[C@]4(C)[C@H]3CC[C@@]21C
Log K [1]: 5

C[C@]12CCC(=O)C=C1CC[C@@H]1[C@@H]2[C@@H](O)C[C@@]2(C)[C@H]1CC[C@]2(O)C(=O)CO
Log K [1]: 7.88
